One test relates to A549. As to the kind of experiment: cells. The following applies: Homo sapiens.
For a further test, the system named is SK-OV-3. The experiment in a line: Antiproliferative activity against human SK-OV-3 cells by MTT assay. It counts as functional, cell-based. Background: Tetrazolium assays rely on reduction of a dye to a coloured formazan, in cell work by metabolically active cells.
For the next test, the system named is T-24. The experiment in a line: Antiproliferative activity against human T-24 cells by MTT assay. It counts as functional, cell-based.
Test [1] concerns MGC-803. As to the kind of experiment: Antiproliferative activity against human MGC-803 cells by MTT assay. It counts as functional, cell-based.
The subject of the next test is SMMC-7721. As to the kind of experiment: Antiproliferative activity against human SMMC-7721 cells by MTT assay. It counts as functional, cell-based.
For test [2], the system named is MGC-803. As to the kind of experiment: Antitumor activity against human MGC-803 cells xenografted in BALB/c nude mice assessed as tumor inhibitory rate at 5 mg/kg, ip measured after 21 days relative to control. It counts as functional. Particulars: Mus musculus, MGC-803, ip, 504 h, time 21 day.
The subject of test [3] is MGC-803. As to the kind of experiment: Antitumor activity against human MGC-803 cells xenografted in BALB/c nude mice assessed as tumor increment rate at 5 mg/kg, ip measured after 21 days relative to control. It counts as functional. Particulars: time 21 day.

One may read the IC50 as the concentration needed to halve the response being measured. Read a high IC50 as a need for much substance. Usually inhibition in vivo stands for the drop in the measured response relative to a control, in per cent. As usually defined, the T/C is the ratio of treated to control.

Description for A549: Antiproliferative activity against human A549 cells by MTT assay

In the case of `CNCCCN1C(=O)c2cccc3c(N4CCN(C(=O)c5ccccc5)CC4)c([N+](=O)[O-])cc(c23)C1=O`, the IC50 in the test with A549 worked out at 6.66 µM; in the test on SK-OV-3, 4.11 µM; in the test with T-24 it was 4.65 µM; in the test on MGC-803 [1] it was 8.22 µM; in the test on SMMC-7721, 4.73 µM.
Consider `CN(C)CCN1C(=O)c2cccc3cc([N+](=O)[O-])cc(c23)C1=O` [MITONAFIDE], for which the IC50 worked out at 0.012 µM in the test on A549; 1.38 µM with SK-OV-3; 1.11 µM in the test with T-24; 6.8 µM in the test on MGC-803 [1]; 3.22 µM in the test on SMMC-7721.
On to `O=C1c2cccc3c(N4CCN(C(=S)SCc5ccccc5)CC4)c([N+](=O)[O-])cc(c23)C(=O)N1CCO`, for which the IC50 is over 50 µM in the test with A549; 31.4 µM with SK-OV-3; 13.2 µM in the test on T-24; 15.4 µM in the test with MGC-803 [1]; 14.3 µM with SMMC-7721.
With `O=C(c1ccccc1)N1CCN(c2c([N+](=O)[O-])cc3c4c(cccc24)C(=O)N(Cc2ccc(Cl)cc2)C3=O)CC1`, the 50% inhibitory concentration (IC50) with A549 worked out at 47.7 µM; with SK-OV-3, 15.9 µM; in the test on T-24, 20.9 µM; in the test with MGC-803 [1] it was 19.9 µM; in the test with SMMC-7721, 13 µM.
For `Cc1ccc(S(=O)(=O)N2CCN(c3c([N+](=O)[O-])cc4c5c(cccc35)C(=O)N(CCO)C4=O)CC2)cc1`, the IC50 worked out at 20.8 µM in the test on A549; 12.2 µM with SK-OV-3; 6.8 µM in the test on T-24; 16 µM in the test on MGC-803 [1]; 15.8 µM with SMMC-7721.
As to `CN(C)CCN1C(=O)c2cccc3cc(N)cc(c23)C1=O` [AMONAFIDE], the IC50 amounted to 7.94 µM with A549; 6.31 µM in the test with SK-OV-3; 5.01 µM with T-24; 9.06 µM in the test with MGC-803 [1]; 6.93 µM in the test on SMMC-7721. Also, the inhibition in vivo at 5 mg/kg in the test with MGC-803 [2] is 65.5%. Moreover, the T/C in the test on MGC-803 [3] is given as 34.4%.
Turning to `Cc1ccc(S(=O)(=O)N2CCN(c3c([N+](=O)[O-])cc4c5c(cccc35)C(=O)N(Cc3ccco3)C4=O)CC2)cc1`, the IC50 was determined as 47.2 µM in the test with A549; 29.5 µM with SK-OV-3; 8.43 µM with T-24; 29.9 µM in the test on MGC-803 [1]; 14.7 µM with SMMC-7721.
Regarding `Cc1ccc(S(=O)(=O)N2CCN(c3c([N+](=O)[O-])cc4c5c(cccc35)C(=O)N(CCc3ccc(O)c(O)c3)C4=O)CC2)cc1`, the IC50 came out at 24.7 µM in the test with A549; 20.4 µM in the test on SK-OV-3; 11.4 µM with T-24; 21.8 µM in the test on MGC-803 [1]; 12.3 µM in the test with SMMC-7721.
Consider `O=C1c2cccc3c(N4CCN(C(=S)SCc5ccccc5)CC4)c([N+](=O)[O-])cc(c23)C(=O)N1Cc1ccc(Cl)cc1`, for which the IC50 with A549 is 40 µM; in the test with SK-OV-3, 29.7 µM; in the test with T-24, 10.3 µM; with MGC-803 [1], 20.7 µM; in the test on SMMC-7721, 8.83 µM.
Regarding `O=C1c2cccc3c(N4CCN(C(=S)SCc5ccccc5)CC4)c([N+](=O)[O-])cc(c23)C(=O)N1Cc1ccco1`, the IC50 with A549 amounted to 44.5 µM; with SK-OV-3, 40.4 µM; in the test with T-24 it was 18.4 µM; in the test with MGC-803 [1] it was 21.2 µM; in the test with SMMC-7721 it was 11.6 µM.
Regarding `COc1ccc(CN2C(=O)c3cccc4c(N5CCN(S(=O)(=O)c6ccc(C)cc6)CC5)c([N+](=O)[O-])cc(c34)C2=O)cc1`, the half-inhibitory concentration (IC50) in the test with A549 turned out to be 26.9 µM; in the test on SK-OV-3, 24.1 µM; with T-24, 14.1 µM; with MGC-803 [1], 16.3 µM; with SMMC-7721 it was 30.2 µM.
On to `CN(C)CCN1C(=O)c2cccc3c(N4CCN(C(=O)OC(C)(C)C)CC4)c([N+](=O)[O-])cc(c23)C1=O`, for which the IC50 in the test with A549 worked out at 1.08 µM; with SK-OV-3, 0.65 µM; in the test on T-24, 0.83 µM; in the test with MGC-803 [1] it was 1.33 µM; in the test on SMMC-7721 it was 1.05 µM.
For `CN(C)CCN1C(=O)c2cccc3c(N4CCN(C(=S)SCc5ccccc5)CC4)c([N+](=O)[O-])cc(c23)C1=O`, the half-inhibitory concentration (IC50) was determined as 1.98 µM in the test on A549; 2.4 µM with SK-OV-3; 2.06 µM with T-24; 6.08 µM in the test on MGC-803 [1]; 3.17 µM in the test with SMMC-7721.
As for `O=c1[nH]cc(F)c(=O)[nH]1` [FLUOROURACIL], the IC50 came out at 40.1 µM in the test on T-24, 34.9 µM with MGC-803 [1] and 15.3 µM in the test on SMMC-7721.
Consider `CC(C)(C)OC(=O)N1CCN(c2c([N+](=O)[O-])cc3c4c(cccc24)C(=O)N(CCc2ccc(O)c(O)c2)C3=O)CC1`, for which the IC50 is 42.1 µM with A549; 8.87 µM in the test with SK-OV-3; 11 µM in the test with T-24; 8.77 µM in the test with MGC-803 [1]; 27.5 µM in the test with SMMC-7721.
For the compound `O=C1c2cccc3c(N4CCN(C(=S)SCc5ccccc5)CC4)c([N+](=O)[O-])cc(c23)C(=O)N1Nc1ccccc1`, the IC50 with A549 is over 50 µM; with SK-OV-3, over 50 µM; in the test on T-24 it was 13.3 µM; in the test on MGC-803 [1] it was 18.4 µM; in the test on SMMC-7721 it was 14.8 µM.
As to `O=C1c2cccc3c(N4CCN(C(=S)SCc5ccccc5)CC4)c([N+](=O)[O-])cc(c23)C(=O)N1CCc1ccc(O)c(O)c1`, the half-maximal inhibitory concentration (IC50) in the test on A549 stood at 17.4 µM; with SK-OV-3, 26.3 µM; in the test on T-24 it was 10.7 µM; with MGC-803 [1] it was 25.4 µM; with SMMC-7721, 22.5 µM.
In the case of `COc1ccc(CN2C(=O)c3cccc4c(N5CCN(C(=S)SCc6ccccc6)CC5)c([N+](=O)[O-])cc(c34)C2=O)cc1`, the IC50 in the test on A549 is 38.6 µM; with SK-OV-3, 27 µM; in the test with T-24 it was 10.8 µM; with MGC-803 [1] it was 31.1 µM; in the test with SMMC-7721, 17.9 µM.
On to `O=C1c2cccc3c(N4CCN(C(=S)SCc5ccccc5)CC4)c([N+](=O)[O-])cc(c23)C(=O)N1Cc1ccccc1`, for which the IC50 was over 50 µM in the test with A549; 34.2 µM with SK-OV-3; 13.1 µM in the test on T-24; 21.7 µM in the test with MGC-803 [1]; 13.5 µM with SMMC-7721.
As for `Cc1ccc(S(=O)(=O)N2CCN(c3c([N+](=O)[O-])cc4c5c(cccc35)C(=O)N(Nc3ccccc3)C4=O)CC2)cc1`, the IC50 is 38.4 µM in the test with A549; 23.2 µM in the test on SK-OV-3; 10.7 µM in the test with T-24; 16.2 µM with MGC-803 [1]; 14.4 µM in the test on SMMC-7721.
For the compound `CC(C)(C)OC(=O)N1CCN(c2c([N+](=O)[O-])cc3c4c(cccc24)C(=O)N(CCc2ccc4c(c2)OCO4)C3=O)CC1`, the IC50 was 16.5 µM in the test with A549; 7.48 µM in the test with SK-OV-3; 9.71 µM in the test on T-24; 25.2 µM in the test on MGC-803 [1]; 14.4 µM with SMMC-7721.
The matching figures for `O=C(c1ccccc1)N1CCN(c2c([N+](=O)[O-])cc3c4c(cccc24)C(=O)N(CCc2ccc(O)c(O)c2)C3=O)CC1`: 22.5 µM, 19.9 µM, 14.6 µM, 9.31 µM and 19.7 µM.
With `Cc1ccc(S(=O)(=O)N2CCN(c3c([N+](=O)[O-])cc4c5c(cccc35)C(=O)N(Cc3ccc(Cl)cc3)C4=O)CC2)cc1`, the IC50 in the test with A549 was over 50 µM; with SK-OV-3, 30.4 µM; with T-24, 6.37 µM; in the test with MGC-803 [1], 28.9 µM; in the test on SMMC-7721, 17.6 µM.
Taken in the same sequence, the figures for `Cc1ccc(S(=O)(=O)N2CCN(c3c([N+](=O)[O-])cc4c5c(cccc35)C(=O)N(Cc3ccccc3)C4=O)CC2)cc1` were 42.9 µM, 38.2 µM, 12.7 µM, 10.8 µM and 14.8 µM.
As for `CNCCCN1C(=O)c2cccc3c(N4CCN(C(=O)OC(C)(C)C)CC4)c([N+](=O)[O-])cc(c23)C1=O`, the IC50 with A549 stood at 7.52 µM; with SK-OV-3 it was 8.65 µM; in the test with T-24 it was 3.05 µM; in the test on MGC-803 [1] it was 6.44 µM; in the test on SMMC-7721, 5.91 µM.
Consider `CC(C)(C)OC(=O)N1CCN(c2c([N+](=O)[O-])cc3c4c(cccc24)C(=O)N(Cc2ccc(Cl)cc2)C3=O)CC1`, for which the IC50 was determined as 40.4 µM with A549; 12.7 µM with SK-OV-3; 9.52 µM in the test on T-24; 16.1 µM in the test with MGC-803 [1]; 7.76 µM in the test with SMMC-7721.
The matching figures for `Cc1ccc(S(=O)(=O)N2CCN(c3c([N+](=O)[O-])cc4c5c(cccc35)C(=O)N(CCc3ccc5c(c3)OCO5)C4=O)CC2)cc1`: 41.8 µM, 28.9 µM, 9.17 µM, 12.8 µM and 16.6 µM.
`O=C(c1ccccc1)N1CCN(c2c([N+](=O)[O-])cc3c4c(cccc24)C(=O)N(CCO)C3=O)CC1`: the 50% inhibitory concentration (IC50) turned out to be 31.3 µM in the test with A549; 16.8 µM in the test with SK-OV-3; 9.93 µM with T-24; 12.9 µM in the test on MGC-803 [1]; 12 µM in the test on SMMC-7721.
For the compound `CC(C)(C)OC(=O)N1CCN(c2c([N+](=O)[O-])cc3c4c(cccc24)C(=O)N(CCO)C3=O)CC1`, the half-maximal inhibitory concentration (IC50) is 45.6 µM in the test on A549; 13.4 µM in the test on SK-OV-3; 12.8 µM in the test on T-24; 27.4 µM in the test on MGC-803 [1]; 13.9 µM in the test on SMMC-7721.
Take `O=C1c2cccc3c(N4CCN(C(=S)SCc5ccccc5)CC4)c([N+](=O)[O-])cc(c23)C(=O)N1CCc1ccc2c(c1)OCO2`: the IC50 in the test with A549 was 33.4 µM; in the test with SK-OV-3, 44.8 µM; with T-24 it was 9.16 µM; in the test with MGC-803 [1] it was 20.7 µM; with SMMC-7721, 12.9 µM.
As to `CCCCN1C(=O)c2cccc3c(N4CCN(S(=O)(=O)c5ccc(C)cc5)CC4)c([N+](=O)[O-])cc(c23)C1=O`, the IC50 with A549 stood at 36.8 µM; in the test on SK-OV-3, 33.6 µM; in the test with T-24, 10.9 µM; in the test with MGC-803 [1] it was 21.3 µM; with SMMC-7721 it was 12.5 µM.

For the origin of these results see ChEMBL document CHEMBL4732079, “Design, synthesis and antitumor evaluation of new 1,8-naphthalimide derivatives targeting nuclear DNA” (Eur J Med Chem, 2021).
